Where two headings read alike, the source gives them in different places.
Tests used:
Type in all cases: in vivo
[1] = test system: barnyardgrass (Echinochloa crus-galli); test: Test A pre-/postemergence plant response; settings: for pest or weed control at 31 g/ha / pest or weed control at 125 g/ha: Echinochloa crus-galli, 240 h, read-out: Plant response rating, Barnyardgrass
Outline: (§1)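 Soil: loam blended with sand. Formulation: non-phytotoxic solvent mixture plus surfactant, applied as preemergence directed soil spray and as postemergence spray. Scoring: visual, 0 no effect to 100 complete control, roughly 10 days post-treatment in greenhouse.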

corn (Zea mays) = test: Test A pre-/postemergence plant response; settings: for Corn plant response rating (crop injury, 0 = no effect, 100 = complete kill) at 31 g/ha / Corn plant response rating (crop injury, 0 = no effect, 100 = complete kill) at 125 g/ha: Zea mays, 240 h
Outline: as §1

[2] = test system: giant foxtail (Setaria faberi); test: Test A pre-/postemergence plant response; settings: for pest or weed control at 31 g/ha / pest or weed control at 125 g/ha: Setaria faberi, 240 h, read-out: Plant response rating, Foxtail, Giant
Outline: as §1

[3] = test system: large crabgrass (Digitaria sanguinalis); test: Test A pre-/postemergence plant response; settings: for pest or weed control at 31 g/ha / pest or weed control at 125 g/ha: Digitaria sanguinalis, 240 h, read-out: Plant response rating, Crabgrass, Large
Outline: as §1

[4] = test system: pigweed (Amaranthus retroflexus); test: Test A pre-/postemergence plant response; settings: for pest or weed control at 31 g/ha / pest or weed control at 125 g/ha: Amaranthus retroflexus, 240 h, read-out: Plant response rating, Pigweed
Outline: as §1

[5] = test system: wheat (Triticum aestivum); test: Test A pre-/postemergence plant response; settings: for plant injury at 31 g/ha / plant injury at 125 g/ha: Triticum aestivum, 240 h, read-out: Plant response rating, Wheat
Outline: as §1

[6] = test system: eastern black (E.B.) nightshade (Solanum ptycanthum); test: Test B pre-/postemergence plant response; settings: Preemergence
Outline: (§2)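 Visual scoring from 0 (no effect) to 100 (complete control) against untreated controls was done 13 to 15 days after greenhouse treatment. Chemicals were formulated in a surfactant-containing non-phytotoxic solvent and applied to soil preemergence or to 1- to 4-leaf (2-18 cm) plants postemergence.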

[7] = test system: green foxtail (Setaria viridis); test: Test B pre-/postemergence plant response
Outline: as §2

[8] = test system: barnyardgrass (Echinochloa crus-galli); test: Test B flooded paddy test plant response
Outline: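 2-leaf plants; pots flooded 3 cm above soil; compound added to paddy water; depth maintained. Greenhouse 13–15 d. Visual rating vs controls, 0 (no effect) to 100 (complete control); dash = no result.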

[9] = Postemergence, 31 g ai/ha, 0 to 100 scale (0 no effect, 100 complete control)
[10] = Postemergence, 125 g ai/ha, 0 to 100 scale, 0 no effect, 100 complete control
[11] = Preemergence, 31 g ai/ha, 0 to 100 scale, 0 is no effect, 100 is complete control
[12] = Preemergence, 125 g ai/ha, 0 to 100 scale (0 no effect, 100 complete control)
[13] = 8 g ai/ha, postemergence, 0-100 scale
[14] = Preemergence, 16 g ai/ha, scale 0 to 100
[15] = post-emergence, Postemergence, 31 g ai/ha, 0 to 100 scale (0 no effect, 100 complete control)
[16] = post-emergence, Postemergence, 125 g ai/ha, 0 to 100 scale, 0 no effect, 100 complete control
[17] = pre-emergence, Preemergence, 31 g ai/ha, 0 to 100 scale, 0 is no effect, 100 is complete control
[18] = pre-emergence, Preemergence, 125 g ai/ha, 0 to 100 scale (0 no effect, 100 complete control)

## Cc1cc(-c2ccc(Cl)cc2)nn1-c1c(OC(=S)N(C)C)cnn(C)c1=O [Compound 69]
[1]; [9]
  Plant response rating, Barnyardgrass: 90
[1]; [10]
  Plant response rating, Barnyardgrass: 100
[1]; [11]
  Plant response rating, Barnyardgrass: 20
[1]; [12]
  Plant response rating, Barnyardgrass: 70
Corn (Zea mays); [9]
  Plant response rating, Corn: 60
Corn (Zea mays); [10]
  Plant response rating, Corn: 90
Corn (Zea mays); [11]
  Plant response rating, Corn: 20
Corn (Zea mays); [12]
  Plant response rating, Corn: 30
[2]; [9]
  Plant response rating, Foxtail, Giant: 90
[2]; [10]
  Plant response rating, Foxtail, Giant: 100
[2]; [11]
  Plant response rating, Foxtail, Giant: 20
[2]; [12]
  Plant response rating, Foxtail, Giant: 90
[3]; [9]
  Plant response rating, Crabgrass, Large: 40
[3]; [10]
  Plant response rating, Crabgrass, Large: 80
[3]; [11]
  Plant response rating, Crabgrass, Large: 0
[3]; [12]
  Plant response rating, Crabgrass, Large: 90
[4]; [9]
  Plant response rating, Pigweed: 0
[4]; [10]
  Plant response rating, Pigweed: 0
[4]; [11]
  Plant response rating, Pigweed: 0
[4]; [12]
  Plant response rating, Pigweed: 0
[5]; [9]
  Plant response rating, Wheat: 0
[5]; [10]
  Plant response rating, Wheat: 30
[5]; [11]
  Plant response rating, Wheat: 0
[5]; [12]
  Plant response rating, Wheat: 0
[6]; 31 g ai/ha, scale 0 to 100 (0 no effect, 100 complete control)
  Plant response rating, Nightshade, E. B.: 0
[6]; 62 g ai/ha, 0 to 100 scale, 0 no effect, 100 complete control
  Plant response rating, Nightshade, E. B.: 0
[6]; 8 g ai/ha, scale 0 to 100
  Nightshade, E. B. plant response rating: 0
[6]; 16 g ai/ha, scale 0 to 100
  Nightshade, E. B. plant response rating: 0
[7]; [13]
  Foxtail, Green plant response rating: 60
[7]; Postemergence, 16 g ai/ha, scale 0 to 100
  Plant response rating, Foxtail, Green: 80
[7]; Postemergence, 31 g ai/ha, scale 0 to 100
  Plant response rating, Foxtail, Green: 90
[7]; Postemergence, 62 g ai/ha, scale 0 to 100, 0 no effect, 100 complete control
  Plant response rating, Foxtail, Green: 95
[7]; Preemergence, 31 g ai/ha, scale 0 to 100 (0 no effect, 100 complete control)
  Plant response rating, Foxtail, Green: 40
[7]; Preemergence, 62 g ai/ha, 0 to 100 scale, 0 no effect, 100 complete control
  Plant response rating, Foxtail, Green: 100
[7]; Preemergence, 8 g ai/ha, scale 0 to 100
  Foxtail, Green plant response rating: 0
[7]; [14]
  Foxtail, Green plant response rating: 0
[8]; Flood (flooded paddy test), 62 g ai/ha, scale 0 to 100, 0 no effect, 100 complete control
  Plant response rating, Barnyardgrass: 0
[8]; Flood (flooded paddy test), 125 g ai/ha, scale 0 to 100, 0 no effect, 100 complete control
  Plant response rating, Barnyardgrass: 0
[8]; Flood (flooded paddy test), 250 g ai/ha, scale 0 to 100, 0 no effect, 100 complete control
  Plant response rating, Barnyardgrass: 0
[8]; Flood, 31 g ai/ha, scale 0 to 100
  Plant response rating, Barnyardgrass: 0

## Cc1cc(-c2ccc(Br)cc2)nn1-c1c(O)cn[nH]c1=O [Compound 78, 4-[3-(4-bromophenyl)-5-methyl-1H-pyrazol-1-yl]-5-hydroxy-3(2H)-pyridazinone]
[1]; [15]
  pest or weed control at 31 g/ha: 90%
[1]; [16]
  pest or weed control at 125 g/ha: 100%
[1]; [17]
  pest or weed control at 31 g/ha: 0%
[1]; [18]
  pest or weed control at 125 g/ha: 100%
Corn (Zea mays); [15]
  Corn plant response rating (crop injury, 0 = no effect, 100 = complete kill) at 31 g/ha: 60%
Corn (Zea mays); [16]
  Corn plant response rating (crop injury, 0 = no effect, 100 = complete kill) at 125 g/ha: 100%
Corn (Zea mays); [17]
  Corn plant response rating (crop injury, 0 = no effect, 100 = complete kill) at 31 g/ha: 0%
Corn (Zea mays); [18]
  Corn plant response rating (crop injury, 0 = no effect, 100 = complete kill) at 125 g/ha: 90%
[2]; [15]
  pest or weed control at 31 g/ha: 80%
[2]; [16]
  pest or weed control at 125 g/ha: 100%
[2]; [17]
  pest or weed control at 31 g/ha: 20%
[2]; [18]
  pest or weed control at 125 g/ha: 100%
[3]; [15]
  pest or weed control at 31 g/ha: 80%
[3]; [16]
  pest or weed control at 125 g/ha: 100%
[3]; [17]
  pest or weed control at 31 g/ha: 10%
[3]; [18]
  pest or weed control at 125 g/ha: 100%
[4]; [15]
  pest or weed control at 31 g/ha: 0%
[4]; [16]
  pest or weed control at 125 g/ha: 0%
[4]; [17]
  pest or weed control at 31 g/ha: 0%
[4]; [18]
  pest or weed control at 125 g/ha: 0%
[5]; [15]
  plant injury at 31 g/ha: 70%
[5]; [16]
  plant injury at 125 g/ha: 90%
[5]; [17]
  plant injury at 31 g/ha: 0%
[5]; [18]
  plant injury at 125 g/ha: 90%
[6]; 8 g ai/ha, scale 0 to 100 (0 no effect, 100 complete control)
  Nightshade, E. B. plant response rating: 0
[6]; 16 g ai/ha, scale 0 to 100
  Nightshade, E. B. plant response rating: 0
[6]; Solanum, pre-emergence, 31 g ai/ha, scale 0 to 100 (0 no effect, 100 complete control), read-out: Plant response rating, Nightshade, E. B.
  pest or weed control at 31 g/ha: 0%
[6]; Solanum, pre-emergence, 62 g ai/ha, 0 to 100 scale, 0 no effect, 100 complete control, read-out: Plant response rating, Nightshade, E. B.
  pest or weed control at 62 g/ha: 55%
[7]; [13]
  Foxtail, Green plant response rating: 40
[7]; Preemergence, 8 g ai/ha, scale 0 to 100 (0 no effect, 100 complete control)
  Foxtail, Green plant response rating: 100
[7]; [14]
  Foxtail, Green plant response rating: 100
[7]; Setaria viridis, post-emergence, Postemergence, 16 g ai/ha, scale 0 to 100, read-out: Plant response rating, Foxtail, Green
  pest or weed control at 16 g/ha: 60%
[7]; Setaria viridis, post-emergence, Postemergence, 31 g ai/ha, scale 0 to 100, read-out: Plant response rating, Foxtail, Green
  pest or weed control at 31 g/ha: 80%
[7]; Setaria viridis, post-emergence, Postemergence, 62 g ai/ha, scale 0 to 100, 0 no effect, 100 complete control, read-out: Plant response rating, Foxtail, Green
  pest or weed control at 62 g/ha: 100%
[7]; Setaria viridis, pre-emergence, Preemergence, 31 g ai/ha, scale 0 to 100 (0 no effect, 100 complete control), read-out: Plant response rating, Foxtail, Green
  pest or weed control at 31 g/ha: 100%
[7]; Setaria viridis, pre-emergence, Preemergence, 62 g ai/ha, 0 to 100 scale, 0 no effect, 100 complete control, read-out: Plant response rating, Foxtail, Green
  pest or weed control at 62 g/ha: 100%

— patent US20100267561A1, “HERBICIDAL PYRIDAZINONE DERIVATIVES” (priority 2007, published 2010)
